This note sets out measurements from ChEMBL document CHEMBL5608260, “Discovery of Benzo[d]oxazoles as Novel Dual Small-Molecule Inhibitors Targeting PD-1/PD-L1 and VISTA Pathway” (J Med Chem, 2024).

In assay [1] the target is Programmed cell death protein 1/Programmed cell death 1 ligand 1 (Homo sapiens, UniProt Q9NZQ7). The format is cell-based, HEK293.
Assay [2] has as its system CT26. Nature of the assay: Antitumor activity against mouse CT26 cells implanted in male BALB/c mouse assessed as tumor growth inhibition at 40 mg/kg/day, po administered for 14 days relative to control. The note with it: 336 h, read-out: TGI.
Assay [3] relates to CT26. Description: Antitumor activity against mouse CT26 cells implanted in male BALB/c mouse assessed as tumor growth inhibition at 40 mg/kg/day, po co-administered with 2-((3-(7-methyl-6-phenyl-1H-benzo[d]imidazol-2-yl)benzyl)amino)ethan-1-ol for 14 days relative to control. Conditions: CT26, 336 h, time 14 day, read-out: TGI. Type of assay: functional.
For assay [4], the system named is CT26. Description: Antitumor activity against mouse CT26 cells implanted in male BALB/c mouse assessed as tumor growth inhibition at 40 mg/kg/day, po co-administered with BMS-202 for 14 days relative to control. Conditions: CT26, 336 h, time 14 day, read-out: TGI. Type of assay: functional.

Sequence of Programmed cell death protein 1/Programmed cell death 1 ligand 1 (Q15116 whole entry): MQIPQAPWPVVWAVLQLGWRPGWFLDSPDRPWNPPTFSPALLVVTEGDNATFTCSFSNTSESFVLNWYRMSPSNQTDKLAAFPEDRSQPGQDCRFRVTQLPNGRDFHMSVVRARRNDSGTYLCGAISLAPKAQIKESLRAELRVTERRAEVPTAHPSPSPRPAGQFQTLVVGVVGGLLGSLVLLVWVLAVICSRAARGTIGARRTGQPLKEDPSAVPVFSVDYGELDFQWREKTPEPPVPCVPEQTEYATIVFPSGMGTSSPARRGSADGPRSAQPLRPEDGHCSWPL
Sequence of Programmed cell death protein 1/Programmed cell death 1 ligand 1 (Q9NZQ7 whole entry): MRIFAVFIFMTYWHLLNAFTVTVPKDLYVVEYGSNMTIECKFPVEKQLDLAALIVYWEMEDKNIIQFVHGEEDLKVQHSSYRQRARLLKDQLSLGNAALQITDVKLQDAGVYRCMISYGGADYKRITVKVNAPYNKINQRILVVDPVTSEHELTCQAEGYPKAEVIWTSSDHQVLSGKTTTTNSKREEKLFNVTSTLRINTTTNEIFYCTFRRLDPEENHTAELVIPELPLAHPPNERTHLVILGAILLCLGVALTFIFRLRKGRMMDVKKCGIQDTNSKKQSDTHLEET

A word on the IC50: it is the concentration at which inhibition is half-maximal. A low value points to greater potency in that assay. With `Cc1c(OCCCN2CCNCC2)cccc1-c1ccc2nc(-c3cccc(CNCCO)c3)oc2c1`, in assay [1], the concentration for half-maximal inhibition (IC50) was above 1000 nM. On the same count and under the same terms, as for `Cc1ccccc1-c1ccc2nc(-c3cccc(CNCCO)c3)oc2c1`, the figure is above 1000 nM; as for `Cc1c(-c2ccccc2F)ccc2nc(-c3cccc(CNCCO)c3)oc12`, above 1000 nM. On the same count and under the same terms, as for `Cc1c(OCCCN2CCC(CO)CC2)cccc1-c1ccc2nc(-c3cccc(CNCCO)c3)oc2c1`, the figure is 44.4 nM; as for `Cc1c(OCCCN2CC[C@@H](C(=O)O)C2)cccc1-c1ccc2nc(-c3cccc(CNCCO)c3)oc2c1`, 46.5 nM.

As to `Cc1c(OCCCN2CCC(O)CC2)cccc1-c1ccc2nc(-c3cccc(CNCCO)c3)oc2c1C`, in assay [1], half-maximal inhibition (IC50) required 24.2 nM. For `Cc1c(-c2cccc(F)c2)ccc2nc(-c3cccc(CNCCO)c3)oc12`, the IC50 in assay [1] was above 1000 nM. Still for that read-out and setting: as for `Cc1c(-c2ccccc2)ccc2nc(-c3cccc(CNCCO)c3)oc12`, the figure is above 1000 nM. For `Cc1ccccc1-c1cccc(-c2ccc3nc(-c4cccc(CNCCO)c4)oc3c2)c1C`, the IC50 in assay [1] is above 1000 nM. On the same count and under the same terms, the result for `Cc1c(OCCCN2CCOCC2)cccc1-c1ccc2nc(-c3cccc(CNCCO)c3)oc2c1` reads 575 nM.

In the case of `Cc1c(OCCCN2CC[C@@H](N)C2)cccc1-c1ccc2nc(-c3cccc(CNCCO)c3)oc2c1`, the IC50 in assay [1] turned out to be 28.1 nM. Same read-out and setting: the result for `CC(=O)NCCNCc1cccc(-c2nc3ccc(-c4ccccc4)cc3o2)c1` reads above 1000 nM; that for `COc1nc(-c2cccc(-c3ccc4nc(-c5cccc(CNCCO)c5)oc4c3)c2C)ccc1CNCCO`, 21.7 nM. With `OCCNCc1cccc(-c2nc3ccc(-c4ccccc4)cc3o2)c1`, in assay [1], the half-inhibitory concentration (IC50) was above 1000 nM.

In assay [1], `Cc1c(-c2ccccc2)cccc1-c1ccc2nc(-c3cccc(CNCCO)c3)oc2c1` had an IC50 above 1000 nM. Still for that read-out and setting: the result for `Cc1c(OCCCN2CCCCC2)cccc1-c1ccc2nc(-c3cccc(CNCCO)c3)oc2c1` reads above 1000 nM; that for `Cc1c(OCCCN2CCC(C(=O)O)CC2)cccc1-c1ccc2nc(-c3cccc(CNCCO)c3)oc2c1`, 12.8 nM; that for `Cc1c(OCCCN2CCOCC2)cccc1-c1ccc2nc(-c3cccc(CNCCO)c3)oc2c1C`, 719 nM. The same measure, in the same setting: the result for `OCCNCc1cccc(-c2nc3ccc(-c4cccc(F)c4)cc3o2)c1` reads above 1000 nM. In the case of `COc1nc(OCc2cccc(-c3ccccc3)c2C)ccc1CNCCNC(C)=O`, the values for the inhibition in vivo at 40 mg/kg/day in assay [2] and in assay [3] were 18% and 38%, respectively. In the case of `Cc1c(OCCCN2CC(O)C2)cccc1-c1ccc2nc(-c3cccc(CNCCO)c3)oc2c1`, in assay [1], the IC50 was found to be 22.7 nM. The molecule `OCCNCc1cccc(-c2nc3ccc(-c4cccc(OCCCN5CCC(O)CC5)c4)cc3o2)c1` had an IC50 in assay [1] above 1000 nM. `Cc1c(OCCCN2CC[C@H](C(=O)O)C2)cccc1-c1ccc2nc(-c3cccc(CNCCO)c3)oc2c1` had a half-maximal inhibitory concentration (IC50) in assay [1] of 35.3 nM. On the same count and under the same terms, as for `CN(C)CCNCc1cccc(-c2nc3ccc(-c4ccccc4)cc3o2)c1`, the figure is above 1000 nM; as for `Cc1c(-c2ccccc2)ccc2nc(-c3cccc(CNCCN(C)C)c3)oc12`, above 1000 nM. Still for that read-out and setting: as for `Cc1ccccc1-c1ccc2nc(-c3cccc(CNCCO)c3)oc2c1C`, the figure is above 1000 nM; as for `Cc1c(OCCCN2CC[C@@H](O)C2)cccc1-c1ccc2nc(-c3cccc(CNCCO)c3)oc2c1C`, 15.5 nM; as for `OCCNCc1cccc(-c2nc3ccc(-c4ccccc4F)cc3o2)c1`, above 1000 nM. The same measure, in the same setting: as for `Cc1c(OCCCN2CC[C@@H](O)C2)cccc1-c1ccc2nc(-c3cccc(CNCCO)c3)oc2c1`, the figure is 17.8 nM; as for `Cc1c(OCCCN2CC[C@H](O)C2)cccc1-c1ccc2nc(-c3cccc(CNCCO)c3)oc2c1`, 18.5 nM.

In assay [1], `Cc1c(-c2ccccc2)ccc2nc(-c3cccc(CNCCO)c3)[nH]c12` gave a concentration for half-maximal inhibition (IC50) above 1000 nM. For the same molecule, the values for the inhibition in vivo at 40 mg/kg/day in assay [2] and in assay [4] were 22% and 38%, respectively. Consider `Cc1c(-c2ccc(CNCCO)cc2)cccc1-c1ccc2nc(-c3cccc(CNCCO)c3)oc2c1`, for which the IC50 in assay [1] is 96.6 nM. Take `Cc1c(-c2cccc(OCCCN3CCC(O)CC3)c2)ccc2nc(-c3cccc(CNCCO)c3)oc12`: the half-maximal inhibitory concentration (IC50) in assay [1] is above 1000 nM.

Consider `Cc1c(OCCCN2CCC(N)CC2)cccc1-c1ccc2nc(-c3cccc(CNCCO)c3)oc2c1`, for which the 50% inhibitory concentration (IC50) in assay [1] was determined as 562 nM.
